{
  "source": "patent US20260021138A1",
  "about": "“EXTRACELLULAR VESICLES AND PARTICLES FROM IMMUNE CELLS FOR PROVIDING ANTICANCER ACTIVITY” (LIETUVOS SVEIKATOS MOKSLU UNIVERSITETAS, priority 2022, published 2026)",
  "key": {"[1]": {"tested_on": "HROG-36 GBM 3D spheroids", "test": "GBM cell migration area in 3D cell cultures", "type": "cell-based, human", "settings": "at higher concentrations", "experimental": "For EV internalisation assessment in 2D GBM cell cultures, AF555-labelled EV solutions in PBS were applied to mixed glial and microglial cultures making a final concentration of 50 μg/mL of total EV protein. The cells were visualised by a fluorescent microscope Zeiss Axio Observer.Z1 (Carl Zeiss, Jena, Germany). For 3D GBM cell cultures, U-bottom 96-well plates were coated with a thin layer of 2% agarose prior to cell seeding. The cells were seeded at a density of 10000 per well, and the plate was centrifuged at 280×g for 7 min. […] The spheroid diameter was monitored under a light microscope on each day of culture (FIG. 17). […]\nFor EV efficiency on GBM cell migration in 3D GBM cell cultures, microscopic images of the cultures were taken at the start and at the end (72 hours), and the area covered by cells was calculated. […] Using the ImageJ software package, the area occupied by migrating spheroid cells was assessed, and the area of the spheroid at the initial time point was subtracted, as indicated in FIG. 24C. Representative images before and after treatment with U-937-derived macrophage and HMC-3 microglial EVs with and without DOX or TMZ and the same amount of free DOX are presented in FIG. 20-23, and quantitative assessment results—in FIG. 24."}, "[2]": {"tested_on": "U-937-derived macrophage cell cultures", "test": "Total cell number after poly(I:C) treatment, macrophages", "type": "cell-based, human", "settings": "24 hours after the poly(I:C) treatment; data not shown", "experimental": "CELL CULTURES FOR EV PRODUCTION. Human monocytes U-937 (ATCC, CRL1593.2) were maintained in RPMI-1640 medium with GlutaMAX (Thermo Fisher Scientific) supplemented with 10% exosome-free FBS (Thermo Fisher Scientific) and 1000 IU/mL penicillin-streptomycin (Gibco, Thermo Fisher Scientific). U-937 were grown in T150 (30 mL medium) tissue culture flasks at 37° C. (incubator New Brunswick Galaxy 170S, Eppendorf) until the settled cells covered 65-75% of the vial bottom. For induction of cell differentiation, the cell medium was changed to Macrophage-SFM medium (Thermo Fisher Scientific) with 200 nM phorbol myristate acetate (PMA, Merck) and the cells were left for 24 hours in a Soft Flask. After this, the medium was replaced with Macrophage-SFM without PMA and kept in the incubator for 48 hours.\nFor TLR-3 pathway stimulation, U-937-derived macrophages and HMC-3 cells were treated with 10 μg/mL poly(I:C) for 1 hour (FIG. 1A, C). For induction of large EV shedding, the stimulation time was increased to 8 hours (FIG. 1B, D). After the treatments, the large EVs were collected by a series of centrifugation. First, the media were centrifuged for 10 min at 800×g to remove cells and large cell debri. Then, the supernatant was centrifuged at 14000×g for 30 minutes to spin down large EVs. The EV pellets were resuspended in PBS by pipetting up and down several times. […]"}, "[3]": {"tested_on": "human microglial cultures (HMC-3)", "test": "Total cell number after poly(I:C) treatment, microglia", "type": "cell-based", "settings": "24 hours after the poly(I:C) treatment; data not shown"}},
  "data": [
    {"molecule": "COc1cccc2c1C(=O)c1c(O)c3c(c(O)c1C2=O)C[C@@](O)(C(=O)CO)C[C@@H]3O[C@H]1C[C@H](N)[C@H](O)[C@H](C)O1", "note": "[DOX, doxorubicin]", "values": [
      {"measurement": "GBM migration suppression, free drug versus loaded EVs", "setting": "[1]", "value": "more efficient"}
    ]},
    {"molecule": "poly(I:C)", "values": [
      {"measurement": "Total cell numbers decreased by", "setting": "[2]", "value": "15±2", "unit": "%"},
      {"measurement": "cell numbers significantly increased by", "setting": "[3]", "value": "22±7", "unit": "%"}
    ]}
  ]
}
